Assays:
[1] = Half life in serum (unknown origin); assay type: ADME, cell-free
[2] = biological target: T1, Bile acid receptor (Homo sapiens, UniProt Q96RI1); experiment: Antagonist activity at GST-tagged FXR LBD (unknown origin) assessed as inhibition of CDCA-induced Bio-SRC-1 recruitment after 30 mins by HTRF assay
T1 sequence (Q96RI1 whole entry): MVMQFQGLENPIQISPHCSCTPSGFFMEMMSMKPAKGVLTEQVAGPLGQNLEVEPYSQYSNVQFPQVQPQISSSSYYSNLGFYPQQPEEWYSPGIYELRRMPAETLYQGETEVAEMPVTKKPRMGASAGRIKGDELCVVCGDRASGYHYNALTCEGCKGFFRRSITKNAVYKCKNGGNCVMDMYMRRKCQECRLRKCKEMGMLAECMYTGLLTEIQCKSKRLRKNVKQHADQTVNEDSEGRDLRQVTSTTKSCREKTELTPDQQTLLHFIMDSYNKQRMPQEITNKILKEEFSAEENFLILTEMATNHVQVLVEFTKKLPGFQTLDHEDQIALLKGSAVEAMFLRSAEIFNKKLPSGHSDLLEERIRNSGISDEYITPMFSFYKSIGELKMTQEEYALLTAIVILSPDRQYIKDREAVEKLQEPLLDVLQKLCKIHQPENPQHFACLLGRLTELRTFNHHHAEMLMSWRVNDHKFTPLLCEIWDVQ

[3] = biological target: T2, Bile acid receptor (Homo sapiens) (UniProt Q96RI1); experiment: Potency index, ratio of guggulsterone IC50 to compound IC50 for GST-tagged FXR LBD (unknown origin)
T2 sequence (whole entry): T1 sequence (Q96RI1 whole entry)

Row | SMILES | half-life [1] | IC50 [2] | Ratio IC50 [3]
1 | CC(C)(C)c1cc(NC(=O)c2ccc(Cl)cc2Cl)ccc1O | > 1 h | 13.6 µM | –
2 | CC(C)(C)c1cc(NC(=O)c2ccc(Cl)cc2Cl)cc(C(C)(C)C)c1O | > 1 h | > 100 µM | –
3 | CN(C)c1cc(Cl)c(C(=O)N(Cc2cccnc2)c2ccc(O)c(C(C)(C)C)c2)c(Cl)c1 | > 1 h | 6.3 µM | –
4 | COc1ccc(NC(=O)c2ccc(Cl)cc2Cl)cc1C(C)(C)C | > 1 h | > 100 µM | –
5 | Cc1ccc(C(=O)Oc2ccc(O)c(C(C)(C)C)c2)cc1 | < 0.25 h | > 100 µM | –
6 | CC(C)(C)c1cc(OC(=O)c2ccc(N)cc2Cl)ccc1O | < 0.25 h | 7.2 µM | –
7 | CCc1cc(NC(=O)c2ccc(Cl)cc2Cl)ccc1O | > 1 h | > 100 µM | –
8 | CC(C)(C)c1cc(NC(=O)c2c(Cl)cc(N)cc2Cl)ccc1O | > 1 h | 5.2 µM | –
9 | Cc1ccccc1C(=O)Oc1ccc(O)c(C(C)(C)C)c1 | < 0.25 h | > 100 µM | –
10 | CC(C)(C)c1cc(OC(=O)Cc2ccccc2)ccc1O | < 0.25 h | > 100 µM | –
11 | CC(C)(C)c1cc(NC(=O)c2c(Cl)cc(NCc3cccnc3)cc2Cl)ccc1O | > 1 h | 3.6 µM | –
12 | Cc1cc(NC(=O)c2ccc(Cl)cc2Cl)ccc1O | > 1 h | > 100 µM | –
13 | CC(=O)Oc1ccc(NC(=O)c2ccc(Cl)cc2Cl)cc1C(C)(C)C | > 1 h | 15.5 µM | –
14 | CC(C)(C)c1cc(OC(=O)c2ccc(N)cc2)ccc1O | < 0.25 h | 34.2 µM | –
15 | CC(C)(C)c1cc(OC(=O)c2ccco2)ccc1O | < 0.25 h | > 100 µM | –
16 | CC(C)(C)c1cc(OC(=O)c2ccccc2)ccc1O | < 0.25 h | > 100 µM | –
17 | COc1ccccc1C(=O)Oc1ccc(O)c(C(C)(C)C)c1 | < 0.25 h | > 100 µM | –
18 | CN(C)c1cc(Cl)c(C(=O)N(CC2CCCCC2)c2ccc(O)c(C(C)(C)C)c2)c(Cl)c1 | > 1 h | > 100 µM | –
19 | CNc1cc(Cl)c(C(=O)Nc2ccc(O)c(C(C)(C)C)c2)c(Cl)c1 | > 1 h | 13.9 µM | –
20 | CC(C)(C)c1cc(OC(=O)c2ccc(Cl)cc2Cl)ccc1O | 0.167 h | 10.2 µM | –

Row | SMILES | half-life [1] | IC50 [2] | Ratio IC50 [3]
21 | CN(C)c1cc(Cl)c(C(=O)Nc2ccc(O)c(C(C)(C)C)c2)c(Cl)c1 | > 1 h | 1.4 µM | –
22 | CN(c1cc(Cl)c(C(=O)Nc2ccc(O)c(C(C)(C)C)c2)c(Cl)c1)C1CCCCC1 | > 1 h | > 100 µM | –
23 | CC(C)(C)c1cc(OC(=O)c2ccc(Cl)cc2)ccc1O | < 0.25 h | > 100 µM | –
24 | CC(C)(C)c1cc(OC(=O)/C=C/c2ccccc2)ccc1O | < 0.25 h | > 100 µM | –
25 | CN(C)c1cc(Cl)c(C(=O)N(C)c2ccc(O)c(C(C)(C)C)c2)c(Cl)c1 | > 1 h | 3.9 µM | –
26 | CC(C)(C)c1cc(NC(=O)c2c(Cl)cc(N3CCCCC3)cc2Cl)ccc1O | > 1 h | > 100 µM | –
27 | CC(C)(C)c1cc(NC(=O)c2c(Cl)cc(NC3CCCCC3)cc2Cl)ccc1O | > 1 h | 2.5 µM | –
28 | CC(C)c1cc(NC(=O)c2ccc(Cl)cc2Cl)ccc1O | > 1 h | > 100 µM | –
29 | CC(C)(C)c1cc(OC(=O)c2c(Cl)cc([N+](=O)[O-])cc2Cl)ccc1O | < 0.25 h | 5.9 µM | –
30 | CC(C)(C)c1cc(OC(=O)c2ccc([N+](=O)[O-])cc2)ccc1O | < 0.25 h | 12.7 µM | –
31 | CC(C)(C)c1cc(NC(=O)c2c(Cl)cc(NCc3cccs3)cc2Cl)ccc1O | > 1 h | 8.6 µM | –
32 | CC(C)(C)c1cc(NC(=O)c2c(Cl)cc(NC3CCCC3)cc2Cl)ccc1O | > 1 h | 5 µM | –
33 | CC(C)(C)c1cc(OC(=O)c2c(Cl)cc(N)cc2Cl)ccc1O | < 0.25 h | 0.6 µM | 100
34 | CC(C)(C)c1cc(NC(=O)c2c(Cl)cc(NCc3ccncc3)cc2Cl)ccc1O | > 1 h | 9.8 µM | –
35 | CCNc1cc(Cl)c(C(=O)Nc2ccc(O)c(C(C)(C)C)c2)c(Cl)c1 | > 1 h | 28.7 µM | –
36 | CC(C)(C)c1cc(OC(=O)c2ccc([N+](=O)[O-])cc2Cl)ccc1O | < 0.25 h | 8.8 µM | –
37 | CC(C)(C)c1cc(NC(=O)c2c(Cl)cc(N3CCNCC3)cc2Cl)ccc1O | > 1 h | > 100 µM | –
38 | CN(C)c1cc(Cl)c(C(=O)N(c2ccc(O)c(C(C)(C)C)c2)C2CCCCC2)c(Cl)c1 | > 1 h | > 100 µM | –
39 | C=CCOc1ccc(NC(=O)c2ccc(Cl)cc2Cl)cc1C(C)(C)C | > 1 h | > 100 µM | –

— ChEMBL document CHEMBL3612053, “Discovery and SAR study of 3-(tert-butyl)-4-hydroxyphenyl benzoate and benzamide derivatives as novel farnesoid X receptor (FXR) antagonists” (Bioorg Med Chem, 2015)
